Our source for the IC50 and viability, T/C values is PubChem BioAssay AID1919017 (Molecular Pharmacology Branch, DTP, NCI, 2023).

Where “and” joins values, the source holds several entries; their conditions need not be identical. Identical values can stand only once.

The test system of the experiment is SW1271 complex spheroids with HUVEC/MSC, growth, % test/control. Description: Anticancer human tumor SW1271 cell line growth inhibition [AhR].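 On all read-outs here: spheroids exposed to agents for 7 days before readout.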 The note with it: for viability, T/C: stronger effect = lower value. In outline: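 Spheroids combined tumor cells with HUVEC endothelial cells and human MSCs as stroma. AhR antagonists were paired with standard or investigational drugs, each dosed in half-log steps down from near clinical Cmax, or from 10 microM where Cmax was unknown.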

[1] abbreviates: curve of first compound, second compound 0.1 µM.
The mark [2] stands for this setting: curve of first compound, second compound 0.316 µM.
Setting [3] is: curve of first compound, second compound 1 µM.
Where [4] appears, read: curve of first compound, second compound 3.16 µM.
The mark [5] stands for this setting: curve of first compound, second compound 10 µM.
Setting [6] is: second compound 0.1 µM, first compound 0.0316 µM.
The mark [7] stands for this setting: second compound 0.1 µM, first compound 0.1 µM.
The mark [8] stands for this setting: second compound 0.1 µM, first compound 0.316 µM.
[9] abbreviates: second compound 0.1 µM, first compound 1 µM.
Setting [10] is: second compound 0.316 µM, first compound 0.0316 µM.
The mark [11] stands for this setting: second compound 0.316 µM, first compound 0.1 µM.
The mark [12] stands for this setting: second compound 0.316 µM, first compound 0.316 µM.
Where [13] appears, read: second compound 0.316 µM, first compound 1 µM.
The mark [14] stands for this setting: second compound 1 µM, first compound 0.0316 µM.
Setting [15] is: second compound 1 µM, first compound 0.1 µM.
The mark [16] stands for this setting: second compound 1 µM, first compound 0.316 µM.
Where [17] appears, read: second compound 1 µM, first compound 1 µM.
Where [18] appears, read: second compound 3.16 µM, first compound 0.0316 µM.
The mark [19] stands for this setting: second compound 3.16 µM, first compound 0.1 µM.
[20] abbreviates: second compound 3.16 µM, first compound 0.316 µM.
[21] abbreviates: second compound 3.16 µM, first compound 1 µM.
Setting [22] is: second compound 10 µM, first compound 0.0316 µM.
Where [23] appears, read: second compound 10 µM, first compound 0.1 µM.
The mark [24] stands for this setting: second compound 10 µM, first compound 0.316 µM.
Where [25] appears, read: second compound 10 µM, first compound 1 µM.
Setting [26] is: second compound 0.1 µM, first compound 3.16 µM.
Setting [27] is: second compound 0.1 µM, first compound 10 µM.
Setting [28] is: second compound 0.316 µM, first compound 3.16 µM.
[29] abbreviates: second compound 0.316 µM, first compound 10 µM.
Where [30] appears, read: second compound 1 µM, first compound 3.16 µM.
The mark [31] stands for this setting: second compound 1 µM, first compound 10 µM.
The mark [32] stands for this setting: second compound 3.16 µM, first compound 3.16 µM.
Setting [33] is: second compound 3.16 µM, first compound 10 µM.
Where [34] appears, read: second compound 10 µM, first compound 3.16 µM.
Where [35] appears, read: second compound 10 µM, first compound 10 µM.

Broadly, the IC50 is the point on the concentration scale where inhibition reaches its midpoint. In general, viability, T/C refers to the ratio of treated to control.

On to `CC1COCCN1c1cc(-c2ccnn2C)c2ccnc(-c3ccn[nH]3)c2n1` (stereo not given) + Cc1cncc(-c2nc(NCCc3c[nH]c4ccccc34)c3ncn(C(C)C)c3n2)c1, for which the IC50 is 0.413 µM under setting [1]; 0.251 µM under setting [2]; 0.653 µM under setting [3]; 0.735 µM under setting [4]; below 0.00316 µM under setting [5]. Besides, the viability, T/C was 79.6% (second compound 0.1 µM, first compound 0.00316 µM); 86.7% (second compound 0.1 µM, first compound 0.01 µM); 70.2% under setting [6]; 57.4% under setting [7]; 58% under setting [8]; 39.4% under setting [9]. Besides, the viability, T/C by setting is: (second compound 0.316 µM, first compound 0.00316 µM) 68%; (second compound 0.316 µM, first compound 0.01 µM) 90.1%; under setting [10], 70.4%; under setting [11], 62.2%; under setting [12], 48%; under setting [13], 35.1%. The viability, T/C is, setting by setting: (second compound 1 µM, first compound 0.00316 µM) 89.8%; (second compound 1 µM, first compound 0.01 µM) 88%; under setting [14], 75.3%; under setting [15], 63%; under setting [16], 62%; under setting [17], 44.2%. For the same molecule, the viability, T/C (second compound 3.16 µM, first compound 0.00316 µM) was 72.2%; the viability, T/C (second compound 3.16 µM, first compound 0.01 µM) was 85.2%; the viability, T/C under setting [18] was 72.4%; the viability, T/C under setting [19] was 70.2%; the viability, T/C under setting [20] is 61.3%; the viability, T/C under setting [21] was 46%. Moreover, the viability, T/C by setting is: (second compound 10 µM, first compound 0.00316 µM) 30.2%; (second compound 10 µM, first compound 0.01 µM) 35%; under setting [22], 36.9%; under setting [23], 36.2%; under setting [24], 35%; under setting [25], 24.6%.
Turning to `Nc1ncn(C2CC(O)C(CO)S2)c(=O)n1` (stereo not given), the viability, T/C runs as follows: (compound 0.000949 µM) 87.6% and 102% and 94.9%; (compound 0.003 µM) 97.8% and 95.9% and 114%; (compound 0.00949 µM) 85.7% and 82.9% and 113%; (compound 0.03 µM) 94.8% and 90.3% and 103%; (compound 0.0949 µM) 89.2% and 85.8% and 94.6%; (compound 0.3 µM) 78.8% and 82.7% and 78.6%. Besides, the IC50 (curve of compound) is above 0.3 µM.
Turning to `CC(C)c1c(-c2ccccc2)nc2c(C#N)c[nH]n2c1=O`, the viability, T/C was 110% and 109% and 85.9% (compound 0.0316 µM); 81.4% and 104% and 86.4% (compound 0.1 µM); 121% and 91.8% and 104% (compound 0.316 µM); 101% and 92.5% and 93.3% (compound 1 µM); 110% and 91.8% and 94% (compound 3.16 µM); 107% and 91.7% and 85.8% (compound 10 µM). For the setting “curve of compound”, the IC50 was above 10 µM.
On to `CC1COCCN1c1cc(C2(S(C)(=N)=O)CC2)nc(-c2ccnc3[nH]ccc23)n1` (stereo not given) + Cc1cncc(-c2nc(NCCc3c[nH]c4ccccc34)c3ncn(C(C)C)c3n2)c1, for which the IC50 reads like this: under setting [1], above 10 µM; under setting [2], above 10 µM; under setting [3], above 10 µM; under setting [4], above 10 µM; under setting [5], below 0.0316 µM. Also, the viability, T/C reads like this: under setting [6], 87.4%; under setting [7], 103%; under setting [8], 85.7%; under setting [9], 88.1%; under setting [26], 85.3%; under setting [27], 67.8%. The viability, T/C is 85.5% under setting [10]; 103% under setting [11]; 106% under setting [12]; 103% under setting [13]; 71.7% under setting [28]; 52.6% under setting [29]. The viability, T/C by setting is: under setting [14], 83.7%; under setting [15], 87.7%; under setting [16], 88.7%; under setting [17], 84.5%; under setting [30], 90.2%; under setting [31], 62.7%. The viability, T/C reads like this: under setting [18], 83%; under setting [19], 93%; under setting [20], 93.6%; under setting [21], 71.1%; under setting [32], 69.4%; under setting [33], 59.3%. Further, the viability, T/C reads like this: under setting [22], 51.6%; under setting [23], 46.9%; under setting [24], 45.5%; under setting [25], 40%; under setting [34], 43.3%; under setting [35], 28.9%.
Consider `COc1ccc([C@@H](O)c2cc(-c3ncnc4cc(N5CCOCC5)ccc34)c(F)cc2Cl)nn1` + Cc1ccccc1N=Nc1ccc(NC(=O)c2ccnn2C)c(C)c1, for which the IC50 under setting [1] turned out to be 2.22 µM; the IC50 under setting [2] came out at 2.55 µM; the IC50 under setting [3] is 5.04 µM; the IC50 under setting [4] was 4.75 µM; the IC50 under setting [5] was 1.98 µM. Also, the viability, T/C is, setting by setting: under setting [6], 97.2%; under setting [7], 98.1%; under setting [8], 87.2%; under setting [9], 58.6%; under setting [26], 50%; under setting [27], 33.9%. In addition, the viability, T/C runs as follows: under setting [10], 82.9%; under setting [11], 94.2%; under setting [12], 77.6%; under setting [13], 65%; under setting [28], 47.6%; under setting [29], 33.5%. In addition, the viability, T/C runs as follows: under setting [14], 94.6%; under setting [15], 89%; under setting [16], 86.2%; under setting [17], 68.1%; under setting [30], 57.9%; under setting [31], 40.4%. Moreover, the viability, T/C is 84.5% under setting [18]; 80.5% under setting [19]; 70.6% under setting [20]; 68.9% under setting [21]; 59.2% under setting [32]; 36.8% under setting [33]. The viability, T/C under setting [22] was 89.5%; the viability, T/C under setting [23] is 73.5%; the viability, T/C under setting [24] is 77.7%; the viability, T/C under setting [25] is 60.9%; the viability, T/C under setting [34] was 41.2%; the viability, T/C under setting [35] is 37.4%.
Turning to `COc1cccc2c1C(=O)c1c(O)c3c(c(O)c1C2=O)CC(O)(C(=O)CO)CC3OC1CC(N)C(O)C(C)O1` (stereo not given), the viability, T/C (compound 0.0316 µM) was 66.6% and 50.3% and 72.6%; the viability, T/C (compound 0.1 µM) was 69.8% and 46.8% and 56.1%; the viability, T/C (compound 0.316 µM) is 53% and 29.6% and 40.6%; the viability, T/C (compound 1 µM) was 7.45% and 5.09% and 6.04%; the viability, T/C (compound 3.16 µM) is 4.63% and 2.92% and 2.03%; the viability, T/C (compound 10 µM) is 13.6% and 3.38% and 3.85%.
